Reference: US20260364184A1, “COMPOUND BASED ON OXOISOINDOLINYL-SUBSTITUTED TETRAHYDROPYRIMIDINE-DIONE AND USE THEREOF” (GLUETACS THERAPEUTICS (SHANGHAI) CO., LTD., priority 2023, published 2026)

Columns and labels:
Type in all cases: cell-based
[1] = tested on: Human myeloid monocytic leukemia cell line (MV-4-11); assay: Inhibition of MV-4-11 cell proliferation (CellTiter luminescent viability); settings: Homo sapiens, MV4-11, Table IG2, FAK inhibitor-based, 96 hours; for inhibition at 0.01 µM: MV-4-11, 10 nM, read-out: Inhibition Rate at 10 nM (%); for inhibition at 0.5 µM: MV-4-11, 500 nM, read-out: Inhibition Rate at 500 nM (%)
How it was run: (§1)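 IC50 is fitted from luminescent viability (CellTiter-Meiluncell) curves. Nine-point, 5-fold dilution series (top stock 2000 μM) are added at 0.5 μL per 100 μL medium to cells plated the day before, with growth at 37 °C and 5% CO2.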

[2] = target: T1, FAK (Homo sapiens, UniProt Q05397); assay: Western blot degradation of FAK; settings: A549 Cell; 24 hours
T1 construct: expression of target proteins in cells; endogenous in cells
Protocol: (§2) Conventional Western blot assay was performed to evaluate the effects of the compounds of the present disclosure on the expression of target proteins in cells.
(§3) (1) Cell Seeding and Protein Harvesting: The selected cells were processed according to the cell seeding procedure and protein harvesting procedure in Table II-2.
(§4) (2) To the collected supernatant, 5×SDS sample loading buffer was added, followed by denaturation at 95 °C for 5 minutes. The denatured samples were then separated by SDS-PAGE electrophoresis on a polyacrylamide gel. Proteins were transferred to a nitrocellulose membrane (0.45 μm NC membrane), blocked with blocking buffer at room temperature for 1 hour, and subjected to antibody incubation and development procedures according to the antibody manufacturer's instructions (Cell Signaling Technology).
(§5) Half-Maximal Degradation Concentration value (the drug concentration required for degrading proteins by 50%, abbreviated as DC50) reads method: comparing the grayscale values of Western blot bands from drug-treated samples with those from blank DMSO-treated controls, and identifying the drug concentration range at which the grayscale value is half that of the DMSO-treated control bands.
(§6) DC50 values can be calculated using ImageJ software to measure grayscale values of Western blot bands from drug-treated samples. The concentration-response curve is fitted to estimate the drug concentration corresponding to half the grayscale value.
(§7) Target protein remaining (%) refers to the percentage of target protein remaining in cells after treatment with protein degrader compounds.
(§8) Calculation method for target protein remaining (%): Use ImageJ software to measure grayscale values of Western blot bands from drug (protein degrader)-treated samples. The grayscale value of drug-treated bands is divided by that of internal control protein bands, and the resulting quotient is normalized to obtain the relative percentage of remaining target protein after protein degrader treatment.
(§9) Target protein degradation rate (%)=1−target protein remaining (%).

[3] = tested on: Human breast cancer cell line (MDA-MB-231); assay: Inhibition of MDA-MB-231 cell proliferation (CellTiter luminescent viability); settings: Table IG3, FAK inhibitor-based, 96 hours; for inhibition at 0.01 µM: MDA-MB-231, 10 nM, read-out: Inhibition Rate at 10 nM (%); for inhibition at 0.5 µM: MDA-MB-231, 500 nM, read-out: Inhibition Rate at 500 nM (%)
[4] = tested on: Human Multiple myeloma cell line (MM.1S); assay: Inhibition of MM.1S cell proliferation (CellTiter luminescent viability); settings: Homo sapiens, MM1.S, Table IG1, FAK inhibitor-based, 96 hours; for inhibition at 0.01 µM: 10 nM, read-out: Inhibition Rate at 10 nM (%); for inhibition at 0.5 µM: 500 nM, read-out: Inhibition Rate at 500 nM (%)
How it was run: as §1

[5] = target: T2, EZH2 (Homo sapiens, UniProt Q15910+Q96SW2); assay: Western blot degradation of EZH2; settings: hPBMC Cell; 24 hours
T2 construct: expression of target proteins in cells; endogenous in cells
Protocol: as §2, §3, §4, §5, §6, §7, §8, §9

[6] = tested on: Human neuroblastoma cell line (SK-N-AS); assay: Inhibition of SK-N-AS cell proliferation (CellTiter luminescent viability); settings: Table II2, EZH2 inhibitor-based, 96 hours; for inhibition at 0.01 µM: 10 nM, read-out: Inhibition Rate at 10 nM (%); for inhibition at 0.5 µM: 500 nM, read-out: Inhibition Rate at 500 nM (%)

T2 sequence (Q15910 whole entry): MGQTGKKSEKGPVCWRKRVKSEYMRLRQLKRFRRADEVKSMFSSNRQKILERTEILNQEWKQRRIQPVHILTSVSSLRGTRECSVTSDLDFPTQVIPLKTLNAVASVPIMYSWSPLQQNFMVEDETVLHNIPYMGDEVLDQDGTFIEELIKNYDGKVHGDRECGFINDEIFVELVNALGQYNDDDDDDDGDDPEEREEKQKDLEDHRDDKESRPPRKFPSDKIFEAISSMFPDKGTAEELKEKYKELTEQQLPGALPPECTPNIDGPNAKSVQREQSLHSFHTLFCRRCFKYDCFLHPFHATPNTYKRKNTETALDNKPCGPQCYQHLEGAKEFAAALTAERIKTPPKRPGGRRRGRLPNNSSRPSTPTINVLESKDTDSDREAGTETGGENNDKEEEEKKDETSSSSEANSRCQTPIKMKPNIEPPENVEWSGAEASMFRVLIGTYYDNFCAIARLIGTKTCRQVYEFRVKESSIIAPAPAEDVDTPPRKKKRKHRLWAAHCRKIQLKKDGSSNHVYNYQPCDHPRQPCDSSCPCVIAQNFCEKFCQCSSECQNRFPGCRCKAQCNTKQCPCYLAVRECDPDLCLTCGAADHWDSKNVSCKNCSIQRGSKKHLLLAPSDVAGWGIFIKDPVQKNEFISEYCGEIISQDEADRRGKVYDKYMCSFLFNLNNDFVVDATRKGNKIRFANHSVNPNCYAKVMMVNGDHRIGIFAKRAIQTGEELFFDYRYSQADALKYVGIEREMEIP
T2 sequence (O75530 whole entry partner): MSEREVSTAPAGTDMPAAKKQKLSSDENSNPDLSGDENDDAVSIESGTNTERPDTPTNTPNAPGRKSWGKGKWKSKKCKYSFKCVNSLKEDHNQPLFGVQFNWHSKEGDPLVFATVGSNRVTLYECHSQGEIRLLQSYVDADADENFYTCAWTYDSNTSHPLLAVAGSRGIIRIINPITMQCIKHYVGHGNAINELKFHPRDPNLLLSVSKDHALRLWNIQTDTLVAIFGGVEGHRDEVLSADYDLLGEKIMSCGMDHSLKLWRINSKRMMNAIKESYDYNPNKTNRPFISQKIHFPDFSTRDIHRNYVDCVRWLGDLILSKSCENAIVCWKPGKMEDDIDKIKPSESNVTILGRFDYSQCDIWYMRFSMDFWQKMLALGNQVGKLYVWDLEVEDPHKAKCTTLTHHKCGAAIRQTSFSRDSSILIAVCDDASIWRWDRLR
T2 sequence (Q15022 whole entry partner): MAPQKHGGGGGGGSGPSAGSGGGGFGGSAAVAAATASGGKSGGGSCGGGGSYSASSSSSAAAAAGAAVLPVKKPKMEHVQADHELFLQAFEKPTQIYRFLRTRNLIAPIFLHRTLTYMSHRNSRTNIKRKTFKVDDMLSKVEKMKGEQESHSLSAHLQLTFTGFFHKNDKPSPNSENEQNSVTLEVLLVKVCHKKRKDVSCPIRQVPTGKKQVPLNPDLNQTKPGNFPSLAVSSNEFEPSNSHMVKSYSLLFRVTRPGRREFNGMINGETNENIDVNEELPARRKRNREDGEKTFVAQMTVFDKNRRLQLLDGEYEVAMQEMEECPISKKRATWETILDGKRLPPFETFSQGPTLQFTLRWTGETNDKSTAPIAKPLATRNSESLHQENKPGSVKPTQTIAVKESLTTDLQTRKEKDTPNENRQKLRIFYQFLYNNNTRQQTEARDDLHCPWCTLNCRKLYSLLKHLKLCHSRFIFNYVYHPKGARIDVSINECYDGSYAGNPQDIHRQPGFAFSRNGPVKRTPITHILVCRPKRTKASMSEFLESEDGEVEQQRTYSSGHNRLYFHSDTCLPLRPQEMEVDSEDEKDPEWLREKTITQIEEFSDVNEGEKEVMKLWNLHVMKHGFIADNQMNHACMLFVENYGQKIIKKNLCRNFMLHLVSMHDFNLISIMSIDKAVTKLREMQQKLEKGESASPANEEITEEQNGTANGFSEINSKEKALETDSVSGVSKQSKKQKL
T2 sequence (Q96SW2 whole entry): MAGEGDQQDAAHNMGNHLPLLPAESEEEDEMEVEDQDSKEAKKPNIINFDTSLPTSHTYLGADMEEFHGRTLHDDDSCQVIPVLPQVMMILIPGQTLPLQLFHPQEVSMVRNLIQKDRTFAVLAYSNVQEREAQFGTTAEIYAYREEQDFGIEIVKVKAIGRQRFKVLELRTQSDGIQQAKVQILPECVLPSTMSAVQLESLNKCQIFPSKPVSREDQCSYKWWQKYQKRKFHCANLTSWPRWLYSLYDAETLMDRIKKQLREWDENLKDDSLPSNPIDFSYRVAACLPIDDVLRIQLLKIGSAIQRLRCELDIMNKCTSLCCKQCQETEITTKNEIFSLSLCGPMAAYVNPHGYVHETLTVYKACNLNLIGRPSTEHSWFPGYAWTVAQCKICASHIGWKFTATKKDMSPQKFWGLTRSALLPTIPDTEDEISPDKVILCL
T2 sequence (Q16531 whole entry partner): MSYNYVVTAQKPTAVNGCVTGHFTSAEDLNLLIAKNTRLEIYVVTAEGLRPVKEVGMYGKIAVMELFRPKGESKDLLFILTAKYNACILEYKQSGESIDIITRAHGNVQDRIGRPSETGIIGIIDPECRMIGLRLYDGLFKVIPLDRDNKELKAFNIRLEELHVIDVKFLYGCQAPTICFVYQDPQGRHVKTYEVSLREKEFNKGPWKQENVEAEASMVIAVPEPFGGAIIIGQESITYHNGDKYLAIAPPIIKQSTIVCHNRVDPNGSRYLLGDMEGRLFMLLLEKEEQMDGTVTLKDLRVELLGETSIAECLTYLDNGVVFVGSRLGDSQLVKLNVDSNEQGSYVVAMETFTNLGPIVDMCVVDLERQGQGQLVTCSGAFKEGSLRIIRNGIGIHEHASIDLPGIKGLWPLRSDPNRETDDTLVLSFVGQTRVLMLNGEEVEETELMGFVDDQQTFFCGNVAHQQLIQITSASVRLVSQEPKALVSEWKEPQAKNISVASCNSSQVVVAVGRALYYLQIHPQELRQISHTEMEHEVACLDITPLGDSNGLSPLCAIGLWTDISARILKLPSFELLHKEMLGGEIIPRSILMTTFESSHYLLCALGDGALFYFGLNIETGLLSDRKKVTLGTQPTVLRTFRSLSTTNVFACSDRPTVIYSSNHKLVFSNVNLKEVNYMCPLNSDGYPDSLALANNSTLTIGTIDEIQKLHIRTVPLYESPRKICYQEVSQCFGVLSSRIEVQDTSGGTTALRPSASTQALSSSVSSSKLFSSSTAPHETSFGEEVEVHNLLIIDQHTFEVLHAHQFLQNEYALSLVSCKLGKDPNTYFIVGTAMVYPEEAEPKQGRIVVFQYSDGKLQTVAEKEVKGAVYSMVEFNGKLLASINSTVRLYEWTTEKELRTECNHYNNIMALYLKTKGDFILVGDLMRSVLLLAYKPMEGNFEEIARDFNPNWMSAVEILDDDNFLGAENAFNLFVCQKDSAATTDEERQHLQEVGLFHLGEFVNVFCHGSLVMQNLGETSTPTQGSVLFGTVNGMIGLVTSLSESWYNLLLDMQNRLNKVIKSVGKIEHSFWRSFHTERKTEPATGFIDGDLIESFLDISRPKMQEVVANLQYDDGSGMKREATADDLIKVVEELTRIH
T1 sequence (Q05397 whole entry): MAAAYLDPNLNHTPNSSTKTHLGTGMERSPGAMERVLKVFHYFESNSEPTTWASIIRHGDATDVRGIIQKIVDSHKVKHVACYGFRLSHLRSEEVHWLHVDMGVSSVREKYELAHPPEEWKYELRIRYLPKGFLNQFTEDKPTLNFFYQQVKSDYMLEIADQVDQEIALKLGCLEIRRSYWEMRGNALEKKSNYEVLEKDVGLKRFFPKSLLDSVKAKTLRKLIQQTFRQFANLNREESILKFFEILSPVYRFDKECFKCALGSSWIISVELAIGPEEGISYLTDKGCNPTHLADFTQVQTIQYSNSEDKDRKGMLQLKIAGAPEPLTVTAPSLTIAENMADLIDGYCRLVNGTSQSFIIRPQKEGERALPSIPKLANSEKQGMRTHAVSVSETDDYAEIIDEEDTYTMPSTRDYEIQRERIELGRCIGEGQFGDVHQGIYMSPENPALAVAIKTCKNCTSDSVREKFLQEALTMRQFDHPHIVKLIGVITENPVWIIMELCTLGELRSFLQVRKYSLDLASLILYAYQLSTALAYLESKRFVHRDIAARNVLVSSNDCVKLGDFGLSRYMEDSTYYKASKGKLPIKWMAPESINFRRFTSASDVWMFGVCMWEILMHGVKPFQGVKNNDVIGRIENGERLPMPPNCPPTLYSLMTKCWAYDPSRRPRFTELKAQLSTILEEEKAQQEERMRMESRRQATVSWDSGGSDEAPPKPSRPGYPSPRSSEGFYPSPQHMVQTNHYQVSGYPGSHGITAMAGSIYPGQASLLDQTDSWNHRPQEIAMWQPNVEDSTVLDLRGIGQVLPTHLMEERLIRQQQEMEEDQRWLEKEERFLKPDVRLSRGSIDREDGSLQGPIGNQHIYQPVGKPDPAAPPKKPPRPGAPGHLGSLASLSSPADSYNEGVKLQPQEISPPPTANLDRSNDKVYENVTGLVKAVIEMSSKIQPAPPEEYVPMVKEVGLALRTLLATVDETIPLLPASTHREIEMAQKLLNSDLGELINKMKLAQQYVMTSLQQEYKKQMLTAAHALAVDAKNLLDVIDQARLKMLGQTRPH

SMILES: CN(c1nccnc1CNc1nc(Nc2ccc(N3CCN(CC4CCN(c5ccc6c(c5)C(=O)N(N5CCC(=O)NC5=O)C6=O)CC4)CC3)cc2)ncc1C(F)(F)F)S(C)(=O)=O [GT-07468, N-(3-(((2-((4-(4-((1-(2-(2,4-dioxotetrahydropyrimidin-1(2H)-yl)-1,3-dioxoisoindolin-5-yl)piperidin-4-yl)methyl)piperazin-1-yl)phenyl)amino)-5-(trifluoromethyl)pyrimidin-4-yl)amino)methyl)pyrazin-2-yl)-N-methylmethanesulfonamide]
- inhibition at 0.01 µM [1]: 30 to 40%
- inhibition at 0.5 µM [1]: 80 to 100%
- Degradation of substrate protein FAK (substrate protein remaining %) [2]: A (0%≤substrate protein remaining %≤80%)
- inhibition at 0.01 µM [3]: 20 to 30%
- inhibition at 0.5 µM [3]: 50 to 60%
- inhibition at 0.01 µM [4]: 20 to 30%
- inhibition at 0.5 µM [4]: 80 to 100%

SMILES: CNC(=O)c1ccccc1Nc1cc(Nc2ccc(N3CCC(N(C)Cc4ccc5c(c4)CN(N4CCC(=O)NC4=O)C5=O)CC3)cc2OC)ncc1C(F)(F)F [GT-07647, 2-((2-((4-(4-(((2-(2,4-dioxotetrahydropyrimidin-1(2H)-yl)-1-oxoisoindolin-5-yl)methyl)(methyl)amino)piperidin-1-yl)-2-methoxyphenyl)amino)-5-(trifluoromethyl)pyridin-4-yl)amino)-N-methylbenzamide]
- inhibition at 0.01 µM [1]: 40 to 50%
- inhibition at 0.5 µM [1]: 80 to 100%
- Degradation of substrate protein FAK (substrate protein remaining %) [2]: A (0%≤substrate protein remaining %≤80%)
- inhibition at 0.01 µM [3]: 40 to 50%
- inhibition at 0.5 µM [3]: 70 to 80%
- inhibition at 0.01 µM [4]: 20 to 30%
- inhibition at 0.5 µM [4]: 40 to 60%

SMILES: CCCc1cc(C)[nH]c(=O)c1CNC(=O)c1cc(-c2ccc(N3CCN(Cc4ccc5c(c4)CN(N4CCC(=O)NC4=O)C5=O)CC3)nc2)cc2c1cnn2C(C)C [GT-08418, 6-(6-(4-((2-(2,4-dioxotetrahydropyrimidin-1(2H)-yl)-1-oxoisoindolin-5-yl)methyl)piperazin-1-yl)pyridin-3-yl)-1-isopropyl-N-((6-methyl-2-oxo-4-propyl-1,2-dihydropyridin-3-yl)methyl)-1H-indazole-4-carboxamide]
- Degradation of substrate protein EZH2 (substrate protein remaining %) [5]: A (0%≤substrate protein remaining %≤80%)

SMILES: CCCc1cc(C)[nH]c(=O)c1CNC(=O)c1cc(-c2ccc(N3CCN(Cc4ccc5c(c4)C(=O)N(N4CCC(=O)NC4=O)C5=O)CC3)nc2)cc2c1cnn2C(C)C [GT-08419, 6-(6-(4-((2-(2,4-dioxotetrahydropyrimidin-1(2H)-yl)-1,3-dioxoisoindolin-5-yl)methyl)piperazin-1-yl)pyridin-3-yl)-1-isopropyl-N-((6-methyl-2-oxo-4-propyl-1,2-dihydropyridin-3-yl)methyl)-1H-indazole-4-carboxamide]
- Degradation of substrate protein EZH2 (substrate protein remaining %) [5]: A (0%≤substrate protein remaining %≤80%)

SMILES: CCCc1cc(C)[nH]c(=O)c1CNC(=O)c1cc(-c2ccc(N3CCC(N(C)Cc4ccc5c(c4)CN(N4CCC(=O)NC4=O)C5=O)CC3)nc2)cc2c1cnn2C(C)C [GT-08420, 6-(6-(4-(((2-(2,4-dioxotetrahydropyrimidin-1(2H)-yl)-1-oxoisoindolin-5-yl)methyl)(methyl)amino)piperidin-1-yl)pyridin-3-yl)-1-isopropyl-N-((6-methyl-2-oxo-4-propyl-1,2-dihydropyridin-3-yl)methyl)-1H-indazole-4-carboxamide]
- Degradation of substrate protein EZH2 (substrate protein remaining %) [5]: A (0%≤substrate protein remaining %≤80%)

SMILES: CCCc1cc(C)[nH]c(=O)c1CNC(=O)c1cc(-c2ccc(N3CCN(C4CCN(Cc5ccc6c(c5)CN(N5CCC(=O)NC5=O)C6=O)CC4)CC3)nc2)cc2c1cnn2C(C)C [GT-08422, 6-(6-(4-(1-((2-(2,4-dioxotetrahydropyrimidin-1(2H)-yl)-1-oxoisoindolin-5-yl)methyl)piperidin-4-yl)piperazin-1-yl)pyridin-3-yl)-1-isopropyl-N-((6-methyl-2-oxo-4-propyl-1,2-dihydropyridin-3-yl)methyl)-1H-indazole-4-carboxamide]
- Degradation of substrate protein EZH2 (substrate protein remaining %) [5]: A (0%≤substrate protein remaining %≤80%)
- inhibition at 0.01 µM [6]: 5 to 10%
- inhibition at 0.5 µM [6]: 20 to 30%

SMILES: CCN(c1cc(-c2ccc(N3CCN(Cc4ccc5c(c4)CN(N4CCC(=O)NC4=O)C5=O)CC3)cc2)cc(C(=O)NCc2c(C)cc(C)[nH]c2=O)c1C)C1CCOCC1 [GT-08510, N-((4,6-dimethyl-2-oxo-1,2-dihydropyridin-3-yl)methyl)-4′-(4-((2-(2,4-dioxotetrahydropyrimidin-1(2H)-yl)-1-oxoisoindolin-5-yl)methyl)piperazin-1-yl)-5-(ethyl(tetrahydro-2H-pyran-4-yl)amino)-4-methyl-[1,1′-biphenyl]-3-carboxamide]
- Degradation of substrate protein EZH2 (substrate protein remaining %) [5]: A (0%≤substrate protein remaining %≤80%)
- inhibition at 0.01 µM [6]: 15 to 20%
- inhibition at 0.5 µM [6]: 20 to 30%

SMILES: CCN(c1cc(-c2ccc(N3CCN(C4CCN(CC5CCN(c6ccc7c(c6)C(=O)N(N6CCC(=O)NC6=O)C7=O)CC5)CC4)CC3)cc2)cc(C(=O)NCc2c(C)cc(C)[nH]c2=O)c1C)C1CCOCC1 [GT-08524, N-((4,6-dimethyl-2-oxo-1,2-dihydropyridin-3-yl)methyl)-4′-(4-(1-((1-(2-(2,4-dioxotetrahydropyrimidin-1(2H)-yl)-1,3-dioxoisoindolin-5-yl)piperidin-4-yl)methyl)piperidin-4-yl)piperazin-1-yl)-5-(ethyl(tetrahydro-2H-pyran-4-yl)amino)-4-methyl-[1,1′-biphenyl]-3-carboxamide]
- Degradation of substrate protein EZH2 (substrate protein remaining %) [5]: A (0%≤substrate protein remaining %≤80%)
- inhibition at 0.01 µM [6]: 15 to 20%
- inhibition at 0.5 µM [6]: 20 to 30%

SMILES: CCN(c1cc(-c2ccc(N3CCN(C4CCN(CC5CCN(c6cccc7c6C(=O)N(N6CCC(=O)NC6=O)C7=O)CC5)CC4)CC3)cc2)cc(C(=O)NCc2c(C)cc(C)[nH]c2=O)c1C)C1CCOCC1 [GT-08525, N-((4,6-dimethyl-2-oxo-1,2-dihydropyridin-3-yl)methyl)-4′-(4-(1-((1-(2-(2,4-dioxotetrahydropyrimidin-1(2H)-yl)-1,3-dioxoisoindolin-4-yl)piperidin-4-yl)methyl)piperidin-4-yl)piperazin-1-yl)-5-(ethyl(tetrahydro-2H-pyran-4-yl)amino)-4-methyl-[1,1′-biphenyl]-3-carboxamide]
- Degradation of substrate protein EZH2 (substrate protein remaining %) [5]: A (0%≤substrate protein remaining %≤80%)
